Laboratory results from paper PMC8484168 (Cancer Chemotherapy and Pharmacology, 2021).

Assays:
[1] = system: CYP3A4; set-up: method as in PMID 32129697; conditions: human hepatocytes; cited from earlier work
[2] = system: CYP3A; set-up: method as in PMID 30427584; conditions: patients with an advanced solid tumor; cited from earlier work
[3] = Rucaparib steady-state trough plasma concentration (Cmin); type: in vivo, human; conditions: rucaparib 600 mg BID from day 5
Source text: This was a 2-part, phase 1, open-label, 2-arm DDI study in patients with advanced solid tumors. In Part 1 of the study, patients were screened for eligibility from day − 28 to − 2 and visited the study site from day − 1 to 23 (Fig. 1). […] To check steady-state plasma concentrations for rucaparib, a blood sample was collected prior to the dosing of rucaparib on days 5, 9, 11, 15, and 19–23.
Other PK parameters, calculated for the probe drugs, included half-life (t1/2), tmax, apparent total clearance of drug after oral administration (CL/F), and apparent volume of distribution during terminal phase (VZ/F). The PK parameter calculated for rucaparib at steady state was trough plasma concentration (Cmin). PK parameters were calculated by noncompartmental analysis using Phoenix WinNonlin, version 8.1 (Certara, Princeton, NJ).

[4] = system: breast cancer resistance protein (BCRP); set-up: method as in PMID 32129697; conditions: read-out: 50% inhibitory concentration (IC50) for BCRP; transfected cells; cited from earlier work
[5] = Safety: TEAEs, Arm A (rucaparib + rosuvastatin); type: in vivo, human
Protocol: (§1) Safety was assessed separately during the 3 treatment periods: before rucaparib dosing (day 1 to 5), rucaparib dosing alone (day 6 to 18), and rucaparib with and after probe drug (day 19 to 23). Safety and tolerability assessments were made based on adverse events (AEs), clinical laboratory results, vital signs, 12-lead electrocardiogram (ECG) measurements, body weight, physical examination, concomitant medication/procedures, and ECOG performance status. AEs were classified according to the Medical Dictionary for Regulatory Activities (MedDRA) classification system version 22.1 [17] and graded according to the Common Terminology Criteria for Adverse Events (CTCAE) version 4.03 [18].

[6] = Safety: TEAEs, Arm B (rucaparib + oral contraceptives)
Protocol: as §1

[7] = system: CYP3As; set-up: method as in PMID 32129697; conditions: human liver microsomes, reversible inhibition; cited from earlier work
[8] = set-up: method as in PMID 29799676; conditions: all dosages 40–500 mg QD or 240–840 mg BID; cited from earlier work

What does the source list for `CNCc1ccc(-c2[nH]c3cc(F)cc4c3c2CCNC4=O)cc1` [rucaparib]?
CYP3A4 mRNA expression [1]: down-regulated; CYP3A activities [1]: reduced; inhibition of CYP3A at steady state [2]: weakly inhibited; days of continuous rucaparib dosing to steady state [3]: 4 days; IC50 [4]: 55 µM; Abdominal distension ([5]; maximum severity 1): 1 (5.9) n (%); Abdominal pain ([5]; maximum severity 1): 1 (5.9) n (%); Blood creatinine increased ([5]; maximum severity 1): 1 (5.9) n (%); Diarrhea ([5]; maximum severity 1): 2 (11.8) n (%); Dyspepsia ([5]; maximum severity 1): 1 (5.9) n (%); Electrocardiogram QT prolonged ([5]; maximum severity 1): 1 (5.9) n (%); Gastrointestinal disorders ([5]; maximum severity 1): 3 (17.6) n (%); General disorders and administration site conditions ([5]; maximum severity 1): 1 (5.9) n (%); Infections and infestations ([5]; maximum severity 1): 1 (5.9) n (%); Investigations ([5]; maximum severity 1): 2 (11.8) n (%); Nasopharyngitis ([5]; maximum severity 1): 1 (5.9) n (%); Peripheral swelling ([5]; maximum severity 1): 1 (5.9) n (%); Reproductive system and breast disorders ([5]; maximum severity 1): 0 n (%); Total patients with events ([5]; maximum severity 1): 5 (29.4) n (%); Vaginal hemorrhage ([5]; maximum severity 1): 0 n (%); Vomiting ([5]; maximum severity 1): 0 n (%); Abdominal pain ([5]; maximum severity 2): 1 (5.9) n (%); Abdominal pain upper ([5]; maximum severity 2): 1 (5.9) n (%); Body temperature increased ([5]; maximum severity 2): 0 n (%); Cardiac disorders ([5]; maximum severity 2): 1 (5.9) n (%); Diarrhea ([5]; maximum severity 2): 1 (5.9) n (%); Dyspepsia ([5]; maximum severity 2): 0 n (%); Electrocardiogram QT prolonged ([5]; maximum severity 2): 0 n (%); Gastrointestinal disorders ([5]; maximum severity 2): 3 (17.6) n (%); General disorders and administration site conditions ([5]; maximum severity 2): 2 (11.8) n (%); Infections and infestations ([5]; maximum severity 2): 1 (5.9) n (%); Investigations ([5]; maximum severity 2): 0 n (%); Noncardiac chest pain ([5]; maximum severity 2): 1 (5.9) n (%); Peripheral swelling ([5]; maximum severity 2): 1 (5.9) n (%); Sinus tachycardia ([5]; maximum severity 2): 1 (5.9) n (%); Total patients with events ([5]; maximum severity 2): 5 (29.4) n (%); Urinary tract infection ([5]; maximum severity 2): 1 (5.9) n (%); Vomiting ([5]; maximum severity 2): 1 (5.9) n (%); Deep vein thrombosis ([5]; maximum severity 3): 1 (5.9) n (%); Total patients with events ([5]; maximum severity 3): 1 (5.9) n (%); Vascular disorders ([5]; maximum severity 3): 1 (5.9) n (%); Pulmonary embolism ([5]; maximum severity 4): 1 (5.9) n (%); Respiratory, thoracic, and mediastinal disorders ([5]; maximum severity 4): 1 (5.9) n (%); Total patients with events ([5]; maximum severity 4): 1 (5.9) n (%); TEAEs considered related to rucaparib by the investigator ([5]; rucaparib alone day 5 to 19, of 10 patients with TEAE): 3; Pharyngitis bacterial ([6]; Arm B, maximum severity 1): 1 (5.6) n (%); patients who experienced at least 1 TEAE ([6]; female, human, in vivo): 50.0%; patients with TEAEs considered related to rucaparib ([6]; female, human, in vivo): 7 patients; Abdominal discomfort ([6]; human, in vivo): 1 (5.6) n (%); Abdominal pain ([6]; human, in vivo): 1 (5.6) n (%); Accident ([6]; human, in vivo): 1 (5.6) n (%); Acute kidney injury ([6]; human, in vivo): 1 (5.6) n (%); Apathy ([6]; human, in vivo): 1 (5.6) n (%); Arthropod bite ([6]; human, in vivo): 1 (5.6) n (%); Ascites ([6]; human, in vivo): 1 (5.6) n (%); Aspartate aminotransferase increased ([6]; human, in vivo): 1 (5.6) n (%); Cerebrovascular accident ([6]; human, in vivo): 0 n (%); Diarrhea ([6]; human, in vivo): 0 n (%); Dysgeusia ([6]; human, in vivo): 2 (11.1) n (%); Erythema ([6]; human, in vivo): 0 n (%); General disorders and administration site conditions ([6]; human, in vivo): 1 (5.6) n (%); Headache ([6]; human, in vivo): 1 (5.6) n (%); Infections and infestations ([6]; human, in vivo): 1 (5.6) n (%); Injury, poisoning, and procedural complications ([6]; human, in vivo): 1 (5.6) n (%); Musculoskeletal and connective tissue disorders ([6]; human, in vivo): 1 (5.6) n (%); Musculoskeletal pain ([6]; human, in vivo): 1 (5.6) n (%); Nausea ([6]; human, in vivo): 1 (5.6) n (%); Onycholysis ([6]; human, in vivo): 1 (5.6) n (%); Peripheral swelling ([6]; human, in vivo): 1 (5.6) n (%); Psychiatric disorders ([6]; human, in vivo): 1 (5.6) n (%); Renal and urinary disorders ([6]; human, in vivo): 1 (5.6) n (%); Skin and subcutaneous tissue disorders ([6]; human, in vivo): 1 (5.6) n (%); Skin hemorrhage ([6]; human, in vivo): 1 (5.6) n (%); Somnolence ([6]; human, in vivo): 1 (5.6) n (%); Taste disorder ([6]; human, in vivo): 1 (5.6) n (%); Thrombocytopenia ([6]; human, in vivo): 0 n (%); IC50 [7]: 17.2 to 22.9 µM; steady state of plasma rucaparib PK achieved by day [8]: ≤ 8 days
